The record followed here is patent US20180185305A1, “An Amino Thiol for Use in the Treatment of an Infection Caused by the Bacterium Mycobacterium Spp” (NOVABIOTICS LIMITED, priority 2015, published 2018).

Type in all cases: cell-based
Test [1] concerns polymicrobial load in CF sputum. Description: Effect of cysteamine and antibiotics on CF sputum microbial burden: single exposure. The following applies: overall over 4 and 24 h exposure; for reduction of polymicrobial load: cysteamine 1 mg/ml. The procedure: Sputum samples were processed for antimicrobial activity within 4 h of collection. To assess the antimicrobial impact of cysteamine alone and cysteamine in conjunction with antibiotics commonly used to treat infective exacerbations of CF lung disease, 0.2 ml of each sputum sample sputum was diluted ten fold in sterile phosphate buffered saline (PBS) and vortexed. Aliquots (0.2 ml) of the homogenised diluted sample were exposed to cysteamine only (1 mg/ml), [ ] antibiotic (tobramycin [0.1 mg/ml] or ciprofloxacin, [0.1 mg/ml] only, cysteamine plus antibiotic or vehicle (PBS) only, for 4 and 24 h at 37° C. Sputum samples were then serially diluted 10-fold (1×10^−1 to 1×10^−8) and spread-plated on non-selective nutrient agar plates. Cultures were incubated at 37° C. and cfu/ml of bacteria quantified at 48 h.
FEV1 was expressed as a percentage of predicted using GLI 2012 reference equations. Sputum microbial load expressed as colony forming units approximated to a log-normal distribution and was therefore logarithmically transformed to base 10. Microbial load after incubation with cysteamine, tobramycin, ciprofloxacin after 4 and 24 hours was modelled using two way repeated measures ANOVA with post hoc testing using Bonferroni adjustment. Analyses were performed using IBM SPSS Statistics for Windows, v22.0 (Armonk, N.Y.).

For test [2], the system named is Mycobacterium abscessus. Description: Antimicrobial susceptibility of M. abscessus isolates, CLSI broth microdilution (MIC100). The note with it: for MIC: Mycobacteroides abscessus. The procedure: (§1) Mycobacterium absessus complex (MAC) was isolated from three participating patients. The susceptibility of these isolates, plus the MAC type strain M. abscessus DSMZ44196 to the antimicrobial effects of cysteamine alone and cysteamine combined with antibiotics employed in MAC eradication strategies, (amikacin, azithromycin and meropenem) was assessed by CLSI broth microdilution procedure [CLSI, 2012] and checkerboard assay respectively.
Background: In broth dilution the organism is exposed to a series of concentrations in liquid medium.

Test [3] has as its system Mycobacterium abscessus. Description: Checkerboard assay of cysteamine combined with antibiotics, fractional inhibitory concentration index. The procedure:
The Fractional Inhibitory Concentration (FIC) corresponds to an interaction coefficient indicating whether the combination of antimicrobial agents is synergistic, additive, antagonist or neutral. The FIC is determined by comparing the activity of an agent in combination (MIC of agent A+agent B) with the activity of the agent alone (MIC of agent A or agent B) as follow (Singh et al., 2000):
FIC=MICA[combition]/MICA[alone]+MICB[combination]/MICB[alone]
Additive combinations of two antimicrobial agents are indicated by a FIC index of 1, whereas a FIC index <1 indicates synergistic combinations. Neutral combinations would give a FIC between 1 and 4, a FIC index higher than 4 indicates antagonist effects between the two antimicrobial agents.
as §1

Setting [4] is: 23 samples, tobramycin 0.1 mg/ml, mean (95% CI).
The mark [5] stands for this setting: nine samples, ciprofloxacin 0.1 mg/ml.
Setting [6] is: DSM44196, strain DSM44196 (type).

Usually MIC stands for the lowest concentration that inhibits growth of the organism. In the case of `NCCS` [Cysteamine, cysteamine], the “reduction of polymicrobial load” value in test [1] (setting [4]) is recorded as 3.18 (2.30-4.07) log10 units; in test [1] (setting [5]) it was 2.76 log10 units. Besides, in test [1] (23 samples), the “further reduction of polymicrobial load compared with tobramycin” value is listed as 1.76 log10 units. Further, the “further reduction of polymicrobial load compared with ciprofloxacin” value in test [1] (nine samples) turned out to be 1.92 log10 units. Moreover, the MIC range in test [2] (M. abscessus isolated from three study subjects) lay in the range of 62.5 to 250 µg/mL. For the same compound, the MIC in test [2] (setting [6]) was 62.5 to 125 µg/mL; in test [2] (strain MR27419N (clinical)), 125 µg/mL; in test [2] (strain MR313292 (clinical)) it was 125 to 250 µg/mL; in test [2] (strain MR313367D (clinical)), 62.5 to 125 µg/mL. Also, the “effect of cysteamine on the impact of amikacin (by FICI)” value in test [3] (clinical and type strains) was “potentiated the impact of amikacin in both clinical and type strains”. Also, in test [3] (clinical and type strains), the “effect of cysteamine on the impact of azithromycin (by FICI)” value was “azithromycin in all but one clinical strain”. The “effect of cysteamine on meropenem sensitivity” value in test [3] (clinical isolates and type strain) was “showing some concentration-specific antagonism”.

For the compound `O=C(O)c1cn(C2CC2)c2cc(N3CCNCC3)c(F)cc2c1=O` [Ciprofloxacin], in test [1] (setting [5]), the “reduction of polymicrobial load” value was determined as 0.84 log10 units.

For the compound `NC[C@H]1O[C@H](O[C@H]2[C@H](O)[C@@H](O[C@H]3O[C@H](CO)[C@@H](O)[C@H](N)[C@H]3O)[C@H](N)C[C@@H]2N)[C@H](N)C[C@@H]1O` [Tobramycin], the “reduction of polymicrobial load” value in test [1] (setting [4]) is 1.42 (95% CI 0.92-1.92) log10 units.

As for `CC[C@H]1OC(=O)[C@H](C)[C@@H](O[C@H]2C[C@@](C)(OC)[C@@H](O)[C@H](C)O2)[C@H](C)[C@@H](O[C@@H]2O[C@H](C)C[C@H](N(C)C)[C@H]2O)[C@](C)(O)C[C@@H](C)CN(C)[C@H](C)[C@@H](O)[C@]1(C)O` [Azithromycin], the minimal inhibitory concentration (MIC) is 1 to 2 µg/mL in test [2] (setting [6]), 1 µg/mL in test [2] (strain MR27419N (clinical)), 8 µg/mL in test [2] (strain MR313292 (clinical)) and 1 µg/mL in test [2] (strain MR313367D (clinical)).

On to `C[C@@H](O)[C@H]1C(=O)N2C(C(=O)O)=C(S[C@@H]3CN[C@H](C(=O)N(C)C)C3)[C@H](C)[C@H]12` [Meropenem], for which the minimal inhibitory concentration (MIC) is 64 µg/mL in test [2] (setting [6]), 64 µg/mL in test [2] (strain MR27419N (clinical)), 16 to 64 µg/mL in test [2] (strain MR313292 (clinical)) and 16 to 64 µg/mL in test [2] (strain MR313367D (clinical)).

Take `NCC[C@H](O)C(=O)N[C@@H]1C[C@H](N)[C@@H](O[C@H]2O[C@H](CN)[C@@H](O)[C@H](O)[C@H]2O)[C@H](O)[C@H]1O[C@H]1O[C@H](CO)[C@@H](O)[C@H](N)[C@H]1O` [Amikacin]: the MIC is 4 to 8 µg/mL in test [2] (setting [6]), 16 µg/mL in test [2] (strain MR27419N (clinical)), 4 µg/mL in test [2] (strain MR313292 (clinical)) and 16 µg/mL in test [2] (strain MR313367D (clinical)).
